# Results taken from patent publication US20220259593A1, “CONTROL OF MAMMALIAN GENE DOSAGE USING CRISPR” (The Regents of the University of California, priority 2019, published 2022).
# Tested on: K562 CRISPRi cells
# Assay: Perturb-seq pooled growth measurement (sgRNA counts, growth phenotype γ, relative activity)
# Type: cell-based, human
# Conditions: sequencing read counts; for Perturb-seq pooled growth sgRNA counts, d5: 5 days of growth (day seven after transduction); for Perturb-seq pooled growth sgRNA counts, d10: 10 days of growth (day twelve after transduction); for Perturb-seq pooled growth sgRNA counts, T0: T0 = day two after transduction
# Summary of the method: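 sgRNA abundance was sequenced from genomic DNA of the same transduced population sampled on days two, seven and twelve. Phenotype γ compares normalized day seven and twelve counts with day two. Day-seven values (five days of growth) define relative sgRNA activity.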
Substance,"Perturb-seq pooled growth sgRNA counts, d5","Perturb-seq pooled growth sgRNA counts, d10","Perturb-seq pooled growth sgRNA counts, T0"
"RPS14_+_149829238.23-P1P2_08: sgRNA targeting RPS14, GAGGCCCGGGCTCGACAATC, SEQ ID NO: 50 (listed as DNA, chemistry not fully specified)",11681,17976,4488
"RPS14_+_149829238.23-P1P2_13: sgRNA targeting RPS14, GAGGCCCGGGCGCGACAGTC, SEQ ID NO: 49 (listed as DNA, chemistry not fully specified)",9567,12082,7137
"RPS15_−_1438413.23-P1P2_00: sgRNA targeting RPS15, GACCAAAGCGATCTCTTCTG, SEQ ID NO: 60 (listed as DNA, chemistry not fully specified)",2912,3376,6757
"RPS15_−_1438413.23-P1P2_01: sgRNA targeting RPS15, GACCAAACCGATCTCTTCTG, SEQ ID NO: 64 (listed as DNA, chemistry not fully specified)",23866,39345,9713
"RPS15_−_1438413.23-P1P2_02: sgRNA targeting RPS15, GACCAAGGCGATCTCTTCTG, SEQ ID NO: 62 (listed as DNA, chemistry not fully specified)",3113,3548,5051
"RPS15_−_1438413.23-P1P2_07: sgRNA targeting RPS15, GACCAAAGCGGTCTCTTCTG, SEQ ID NO: 61 (listed as DNA, chemistry not fully specified)",3595,4631,6337
"RPS15_−_1438413.23-P1P2_12: sgRNA targeting RPS15, GACCAAAGCGATCTCTTGTG, SEQ ID NO: 63 (listed as DNA, chemistry not fully specified)",12257,19991,4661
"RPS18_+_33239917.23-P1P2_00: sgRNA targeting RPS18, GCTGCGATGCCGCTGGATCA, SEQ ID NO: 40 (listed as DNA, chemistry not fully specified)",1556,1535,6212
"RPS18_+_33239917.23-P1P2_01: sgRNA targeting RPS18, GCTGCAATGCCGCTGGATCA, SEQ ID NO: 41 (listed as DNA, chemistry not fully specified)",2658,2571,5202
"RPS18_+_33239917.23-P1P2_02: sgRNA targeting RPS18, GCTGGGATGCCGCTGGATCA, SEQ ID NO: 42 (listed as DNA, chemistry not fully specified)",3404,3757,5486
"RPS18_+_33239917.23-P1P2_04: sgRNA targeting RPS18, GCTGCGATCCCGCTGGATCA, SEQ ID NO: 44 (listed as DNA, chemistry not fully specified)",9728,13186,5132
"RPS18_+_33239917.23-P1P2_08: sgRNA targeting RPS18, GCTGCGATTCCGCTGGATCA, SEQ ID NO: 43 (listed as DNA, chemistry not fully specified)",11101,13839,8535
"SEC61A1_−_127771295.23-P1_00: sgRNA targeting SEC61A1, GGCACTGACGTGTCTCTCGG, SEQ ID NO: 83 (listed as DNA, chemistry not fully specified)",2151,2025,11429
"SEC61A1_−_127771295.23-P1_01: sgRNA targeting SEC61A1, GGCACTGTCGTGTCTCTCGG, SEQ ID NO: 85 (listed as DNA, chemistry not fully specified)",4006,4229,5308
"SEC61A1_−_127771295.23-P1_02: sgRNA targeting SEC61A1, GGCGCTGACGTGTCTCTCGG, SEQ ID NO: 84 (listed as DNA, chemistry not fully specified)",4030,4238,9991
"SEC61A1_−_127771295.23-P1_03: sgRNA targeting SEC61A1, GGTACTGACGTGTCTCTCGG, SEQ ID NO: 86 (listed as DNA, chemistry not fully specified)",3530,3563,5904
"SEC61A1_−_127771295.23-P1_04: sgRNA targeting SEC61A1, GGCACTGAAGTGTCTCTCGG, SEQ ID NO: 87 (listed as DNA, chemistry not fully specified)",7999,10772,5081
"TUBB_+_30688126.23-P1_00: sgRNA targeting TUBB, GCGGCAGGAAGGTTCTGAGA, SEQ ID NO: 23 (listed as DNA, chemistry not fully specified)",2722,1125,13570
"TUBB_+_30688126.23-P1_01: sgRNA targeting TUBB, GCAGCAGGAAGGTTCTGAGA, SEQ ID NO: 106 (listed as DNA, chemistry not fully specified)",1319,962,7125
"TUBB_+_30688126.23-P1_03: sgRNA targeting TUBB, GCGGCAGCAAGGTTCTGAGA, SEQ ID NO: 108 (listed as DNA, chemistry not fully specified)",1680,1221,4751
"TUBB_+_30688126.23-P1_06: sgRNA targeting TUBB, GCGGCAGGACGGTTCTGAGA, SEQ ID NO: 107 (listed as DNA, chemistry not fully specified)",1983,1158,6235
"TUBB_+_30688126.23-P1_10: sgRNA targeting TUBB, GCGGCAGGAAGGTTCAGAGA, SEQ ID NO: 109 (listed as DNA, chemistry not fully specified)",9877,12737,7085
"non-targeting_00001: non-targeting negative control sgRNA, GTGCACCCGGCTAGGACCGG, SEQ ID NO: 161 (listed as DNA, chemistry not fully specified) [reference compound]",18946,31944,10415
"non-targeting_00028: non-targeting negative control sgRNA, GGTGGCCTTTGCAATTGGCG, SEQ ID NO: 162 (listed as DNA, chemistry not fully specified) [reference compound]",20289,35652,8871
"non-targeting_00054: non-targeting negative control sgRNA, GGGCCTGGACGAGCCTAAAA, SEQ ID NO: 163 (listed as DNA, chemistry not fully specified) [reference compound]",29818,49855,12360
"non-targeting_00089: non-targeting negative control sgRNA, GGGGTGAGGGTCCAATTCGG, SEQ ID NO: 164 (listed as DNA, chemistry not fully specified) [reference compound]",27748,44919,10841
"non-targeting_00217: non-targeting negative control sgRNA, GTGAACTCAAAAATCCCGAC, SEQ ID NO: 165 (listed as DNA, chemistry not fully specified) [reference compound]",25185,42962,10286
"non-targeting_00283: non-targeting negative control sgRNA, GGGCCGACGGATAGGAGGGA, SEQ ID NO: 166 (listed as DNA, chemistry not fully specified) [reference compound]",18547,27936,8188
"non-targeting_00406: non-targeting negative control sgRNA, GGCGCCGGACTGGACCTCGA, SEQ ID NO: 167 (listed as DNA, chemistry not fully specified) [reference compound]",24099,39839,9974
